Measurements reported in patent publication US7045311B2, “Whole cell assay systems for cell surface proteases” (Monogram Biosciences, Inc., priority 2001, dated 2006).
“Also recorded” adds a separate entry of the source.

Key:
Format in all cases: cell-based
[1] = molecular target: T1, ADAM 17 (Homo sapiens, UniProt P78536); assay: Whole cell ADAM 17 assay: cleavage of TNF-α-FL by THP-1 cells, capillary electrophoresis; conditions: for formation of TNF-α-FL cleavage product (ADAM 17 activity): TNF-α-FL substrate, reagent added to the assay
T1 construct: endogenous in cells; host or cells: THP-1 cells (whole, live)
Protocol: A substrate for a cell surface protease, typically an ADAM, or preferably a plurality of substrates for different proteases, each having a distinct detectable label, is added to a live cell suspension in a buffer. Typically, about 1.5×10^5 cells are used in 50 μL medium. […] The cells are washed three times on ice with buffer (lacking the protein and anti-proteases noted below) before use. A suitable buffer consists of 50 mM HEPES (pH 7.2), 150 mM NaCl, 2 mM MgCl2, 0.1% human serum albumin (HSA), with serine and thiol protease inhibitor cocktail (Roche Diagnostics). Depending on the peptide, nonspecific binding may be blocked by addition of a protein selected from human serum albumin (HSA), bovine serum albumin (BSA), casein (CAS), gamma globulins (GG), and fetal bovine serum (FBS).
All component additions are done on ice, and the tubes are then transferred to a temperature controlled water bath for incubation. The assay mixture is incubated at a fixed temperature for a fixed time, e.g., 37° C. for 1 hr. Following incubation, the tubes are removed from the incubator and placed again on ice.
For experiments employing additional reagents, such as a GPCR agonist or a protein kinase C stimulator such as PMA (phorbol myristate acetate), the additional reagent is added at the beginning of the incubation period.
A suitable separation medium consists of 1% PEO in 50 mM HEPES (pH 7.2). […] In a typical separation, detection occurs at 5 mm down from the injection site (cross), an argon-ion laser is used as the excitation source, PMT is typically set at 600V to 900V, and gain is set to 5 μA/V at a frequency of 10 Hz. The 10× objective is used, and the sampling rate is 200/sec. Well volumes are typically 2 μL.
For peak analysis, time normalized peak areas for peptide cleavage products are divided by time normalized fluorescein (or aminomethyl fluorescein) peak areas to arrive at the product/fluorescein normalized area ratios.
A TNF-α peptide fragment, known to be a substrate for ADAM 17, was labeled at the N-terminus with fluorescein. […] After a one-hour incubation, aminomethyl fluorescein was added as an electrophoretic marker, and the reaction supernatant was separated by capillary electrophoresis.

[2] = system: ADAM 10; assay: Whole cell ADAM 10 assay in HEK-293 cells
Protocol: (§1) For experiments involving GPCR's, adherent cells are plated into 96-well plates at 5×10^4 cells/well and serum starved for 18–24 hr prior to use. A suitable buffer comprises 10 mM HEPES (pH 7.2), 1× HANKS, 0.1% human serum albumin (HSA), and serine/thiol protease inhibitor cocktail (Roche Diagnostics). Cells are washed three times with the HANKS-HEPES buffer, lacking protein and anti-protease, prior to use.
(§2) The products of the assays are conveniently analyzed by capillary electrophoresis on a microfluidic LabCard™ (ACLARA Biosciences, Inc.). Typically, a LabCard™ containing a 64-channel array is used, but no special changes are needed to run the assay on a 96- or 32-channel card, or other configuration.
(§3) The configuration of channels for each separation on a LabCard is shown schematically in FIG. 13. The channel network may be a double-T network as shown or a cross network, i.e. where wells 110 and 114 in the figure are directly opposed. A suitable separation medium consists of 1% PEO in 50 mM HEPES (pH 7.2). In a typical separation, sample is injected from well 110 to well 114 at an injection voltage of 550V for e.g. 35 sec. Separation is carried out from well 104 to well 106 for e.g. 20 sec., with the voltages of 0V, 380V, 800V, and 380V in wells 104, 110, 106, and 114, respectively, resulting in a field strength of 455V/cm. […]

[3] = system: ADAM 10; assay: Whole cell ADAM 10 assay: cleavage of CD40L-FL by Rat-1 cells with GPCR ligands; conditions: CD40L-FL substrate
Protocol: as §1, §2, §3

T1 sequence (P78536 215-824): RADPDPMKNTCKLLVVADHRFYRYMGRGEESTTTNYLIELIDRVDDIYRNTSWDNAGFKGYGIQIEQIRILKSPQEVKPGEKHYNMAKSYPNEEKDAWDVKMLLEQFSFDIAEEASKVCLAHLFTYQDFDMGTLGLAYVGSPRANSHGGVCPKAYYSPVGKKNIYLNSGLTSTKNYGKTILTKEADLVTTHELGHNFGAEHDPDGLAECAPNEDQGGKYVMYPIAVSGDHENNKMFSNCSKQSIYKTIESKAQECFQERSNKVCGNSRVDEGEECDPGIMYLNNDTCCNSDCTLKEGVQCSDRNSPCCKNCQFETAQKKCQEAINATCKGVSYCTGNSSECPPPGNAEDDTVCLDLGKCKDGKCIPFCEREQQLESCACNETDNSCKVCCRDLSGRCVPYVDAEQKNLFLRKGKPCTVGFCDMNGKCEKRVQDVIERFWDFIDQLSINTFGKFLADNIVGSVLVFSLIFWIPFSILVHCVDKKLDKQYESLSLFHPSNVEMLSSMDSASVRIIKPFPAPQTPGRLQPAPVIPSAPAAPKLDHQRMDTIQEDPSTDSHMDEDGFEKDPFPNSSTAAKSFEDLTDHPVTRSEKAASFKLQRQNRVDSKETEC

Row | Molecule | formation of TNF-α-FL cleavage product (ADAM 17 activity) [1] | ADAM 10 activity [2] | ADAM 10 activity (amount of CD40L-FL cleavage product) [3] | also measured
1 | CNC(=O)[C@H](Cc1c[nH]c2ccccc12)NC(=O)[C@@H](CC(=O)NO)CC(C)C [GM6001] | completely inhibited |  |  | 
2 | CCCCCCCCCCCCCC(=O)O[C@@H]1[C@@H](C)[C@@]2(O)[C@@H](C=C(CO)C[C@]3(O)C(=O)C(C)=C[C@@H]23)[C@@H]2C(C)(C)[C@]12OC(C)=O [PMA, phorbol myristate acetate] | significantly lower; also recorded: significantly reduced | decline |  | 
3 | C[N+](C)(C)CCOC(N)=O [carbachol] |  | activated |  | 
4 | OC[C@H]1O[C@@](CO)(O[C@H]2O[C@H](CO)[C@@H](O)[C@H](O)[C@H]2O)[C@@H](O)[C@@H]1O [sucrose] |  |  |  | TNF-α-FL cleavage activity on addition of sucrose in the presence of PMA ([1]; 450 mM sucrose with PMA): restored the activity
5 | endothelin-1: known ligand for GPCRs (CSCSSLMDKECVYFCHLDIIW) |  |  | decreased | 
6 | lysophosphatidic acid [LPA] |  |  | increased | 
